Results on 1 compound are retold here after patent publication US10184115B2, “Mutated cellobiose dehydrogenase with increased substrate specificity” (DIRECTSENS GMBH, priority 2012, dated 2019).

The target of this assay is T1, Myriococcum thermophilum cellobiose dehydrogenase (CDH, SEQ ID NO: 1) variant N721D (Thermothelomyces myriococcoides, UniProt A9XK88, N721D).
T1 sequence (A9XK88 22-828 N721D): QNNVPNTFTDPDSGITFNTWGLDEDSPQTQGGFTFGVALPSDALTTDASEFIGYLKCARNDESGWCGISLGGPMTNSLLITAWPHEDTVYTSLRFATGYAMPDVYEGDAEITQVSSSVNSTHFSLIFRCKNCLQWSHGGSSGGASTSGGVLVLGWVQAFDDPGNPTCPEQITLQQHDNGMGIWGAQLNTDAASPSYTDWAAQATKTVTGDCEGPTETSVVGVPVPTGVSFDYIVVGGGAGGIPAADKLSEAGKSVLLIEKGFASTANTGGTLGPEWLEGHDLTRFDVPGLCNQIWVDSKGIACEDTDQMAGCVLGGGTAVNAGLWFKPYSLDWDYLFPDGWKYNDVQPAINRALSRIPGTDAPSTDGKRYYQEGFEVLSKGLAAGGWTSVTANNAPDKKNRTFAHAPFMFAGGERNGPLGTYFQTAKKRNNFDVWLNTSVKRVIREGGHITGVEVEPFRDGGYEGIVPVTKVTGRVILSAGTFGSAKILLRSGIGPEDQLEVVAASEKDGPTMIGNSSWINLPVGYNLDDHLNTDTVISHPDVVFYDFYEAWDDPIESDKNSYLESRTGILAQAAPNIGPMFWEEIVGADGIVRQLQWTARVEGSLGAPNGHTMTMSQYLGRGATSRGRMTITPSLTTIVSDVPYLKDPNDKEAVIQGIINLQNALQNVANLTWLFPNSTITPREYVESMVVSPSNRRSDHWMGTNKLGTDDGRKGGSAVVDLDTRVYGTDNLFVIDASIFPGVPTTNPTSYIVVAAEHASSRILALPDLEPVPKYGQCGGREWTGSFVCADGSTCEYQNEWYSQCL
Kind of assay: Steady-state kinetics, DCIP assay: M. thermophilum CDH N721D. Format: biochemical. The conditions noted are these: apparent, pH 4.5, 30° C. The procedure: Enzyme activity was assayed at 30° C. using either the DCIP (Karapetyan et al., 2005 Journal of Biotechnology 121: 34-48) or cytochrome c (Canevascini et al., 1991, European Journal of Biochemistry 198: 43-52) as electron acceptor. […] Stock solutions of carbohydrates used for kinetic measurements were prepared in the respective buffer and allowed to stand overnight for mutarotation, while stock solutions of electron acceptors were prepared in water and immediately used. The reaction stoichiometry is 1 for the two-electron acceptor DCIP (1 mole of DCIP reduced per mole of carbohydrate oxidized), but 2 for the one-electron acceptor cytochrome c. Kinetic constants were calculated by fitting the observed data to the Henri-Michaelis-Menten equation or to the adapted model for substrate inhibition using nonlinear least-squares regression and the program SigmaPlot (Systat Software, San Jose, Calif., USA). […]
Recombinant wild-type CDH as well as variants were produced in 1 L baffled flasks. […] Increase in activity was monitored using the DCIP and the cytochrome c enzyme assays. […]
The sample was loaded on a 20 mL PHE Sepharose FF column (HR26/20) equilibrated with 50 mM Na-acetate buffer pH 5.5 containing 20% ammonium sulfate. […] Fractions were tested for CDH activity and pooled according to the highest Reinheitszahl (RZ, calculated from the absorbance ratio 420 nm/280 nm). […]

One may read the kcat as the maximal rate divided by the concentration of active sites. In general, kcat/KM refers to the second-order rate constant that governs catalysis at low substrate concentration. With `OC[C@H]1OC(O)[C@H](O)[C@@H](O)[C@@H]1O` (some centres unmarked) [Glucose, glucose], the catalytic constant (kcat) was found to be 1.9 s⁻¹ and the catalytic efficiency (kcat/KM) was found to be 5.9 M⁻¹ s⁻¹.
